{"source": "patent US5783562A", "about": "“Luteinizing hormone releasing hormone analogs” (Asta Medica Aktiengesellschaft, priority 1990, dated 1998)", "key": {"mast cells [1]": {"system": "mast cells", "format": "cell-based, rat", "method": "The healthy, adult, male SD rats (BW 200-250 g) used in this experiment were housed in the same conditions as for the adult, female SD rats above. After anesthetizing with CO2, the peritoneal cavity was washed with 50 ml of PIPES AC medium containing 20 units of heparin. Following centrifugation at 200×g for 8 min. at 4° C., the cells were washed again and resuspended to a concentration of 8-to-24×10^5 total leukocytes/ml in […]. This suspension contained approximately 5-10% mast cells. Washed cells were used immediately after collection and were prewarmed for 5 min. at 37° C. prior to pipetting 0.3 ml aliquots into polystyrene tubes containing 0.3 ml of diluted peptide. The mixtures were incubated for 15 min. at 37° C., and the reaction was stopped by centrifugation at 400×g for 15 min. at 4° C. The supernatants were assayed for histamine content by manual fluorometric assay method after successful extraction with n-butanol and n-heptane. The histamine content can be obtained from the histamine standard curve (see below). The percentage of histamine release can be calculated from the following equation: [formula] where E is the fluorometric reading of the experimental sample, B is the fluorometric reading of samples with cells and buffer only, and C is the fluorometric reading of \"complete\" samples (cells treated with HCIO4). The standard curve can be obtained by plotting the OD values on a fluorometer at 350 nm/450 nm (activation/fluorescent) against the concentrations of serially diluted solutions of accurately weighed histamine hydrochloride. The relative parameter (r) of the histamine standard curve can be 0.9998, and the lowest detectable concentration of histamine is 0.5 ng/ml. The ED50 value of a peptide can be determined from the dose response curves obtained by plotting the histamine release versus the peptide concentration on semilogarithmic paper. All peptide samples should be tested with mast cells from a minimum of 3 different rats."}, "mast cells [2]": {"system": "mast cells", "conditions": "neuropeptide SP, background; cited from earlier work"}, "[3]": {"test": "Water-solubility / hydrophilicity of the peptides", "format": "physicochemical"}, "rat ovulation": {"system": "rat ovulation", "test": "Corbin's rat antiovulation method (antiovulatory activity, AOA)", "format": "in vivo", "conditions": "in saline, at noon of proestrus, female SD rats", "method": "Corbin's rat antiovulation method was used in the present invention. Healthy, adult, female SD rats (BW 200-250 g) were used in this experiment. All animals were maintained at 22°-24° C. and on a 14 hr./10 hr. (light/dark) schedule. They were given standard food and water ad libitum. Only those rats showing at least two consecutive 4-day estrous cycles in vaginal smear examination could be used in this experiment. The rats were given peptides (LHRH antagonists) at noon of proestrus with different doses in saline solution. The rats were sacrificed the next day, and both portions of their oviducts were examined using a dissecting microscope in order to determine the ovum number. The rats were divided into several groups according to the dosing, and each group consisted of about 10 rats. The control group, which was given an equivalent amount of saline, consisted of 9-10 rats. […] Evaluation of Histamine Releasing Activity"}}, "note": "Like-named read-outs stand apart in the source and are kept apart here. Non-standard residues stand in square brackets, D forms with d. Residues, ends and D or L forms follow the SMILES beside them. dPhe(4-Cl) = N[C@H](Cc1ccc(Cl)cc1)C(=O)O; d2Nal = N[C@H](Cc1ccc2ccccc2c1)C(=O)O; d3Pal = N[C@H](Cc1cccnc1)C(=O)O", "data": [{"molecule": "CC(=O)N[C@H](Cc1ccc2ccccc2c1)C(=O)N[C@H](Cc1ccc(Cl)cc1)C(=O)N[C@H](Cc1ccc(O)cc1)C(=O)N[C@@H](CO)C(=O)N[C@@H](CCCCN)C(=O)N[C@H](Cc1cccnc1)C(=O)N[C@@H](CC(C)C)C(=O)N[C@@H](CCCNC(=N)N)C(=O)N1CCC[C@H]1C(=O)N[C@H](C)C(N)=O", "note": "[Compound 4] (Ac-[d2Nal][dPhe(4-Cl)][dY]SK[d3Pal]LRP[dA]-NH2)", "values": [{"measurement": "HRA (μg/ml) ED50 ± SEM", "setting": "mast cells [1]", "value": 6.1, "unit": "µg/mL"}]}, {"molecule": "Arg^1 -Pro^2 -Lys^3 -Pro^4 -Gln^5 -Gln^6 -Phe^7 -Phe^8 -Gly^9 -Leu^10 -Met^11 -NH2 [neuropeptide SP]", "values": [{"measurement": "ED50 for HRA", "setting": "mast cells [2]", "value": "5 to 15", "unit": "µM"}]}, {"molecule": "CC(=O)N[C@H](Cc1ccc2ccccc2c1)C(=O)N[C@H](Cc1ccc(Cl)cc1)C(=O)N[C@H](Cc1cccnc1)C(=O)N[C@@H](CO)C(=O)N[C@@H](CCCNC(=N)N)C(=O)N[C@H](Cc1cccnc1)C(=O)N[C@@H](CC(C)C)C(=O)N[C@@H](CCCNC(=N)N)C(=O)N1CCC[C@H]1C(=O)N[C@H](C)C(N)=O", "note": "[IV, NAc-D2Nal^1 -DpClPhe^2 -D3Pal^3 -Ser^4 -Arg^5 -D3Pal^6 -Leu^7 -Arg^8 -Pro^9 -DAla^10 -NH2] (Ac-[d2Nal][dPhe(4-Cl)][d3Pal]SR[d3Pal]LRP[dA]-NH2)", "values": [{"measurement": "hydrophilicity", "setting": "[3]", "value": "very strong hydrophilicity"}]}, {"molecule": "NAc-D2Nal^1 -DpClPhe^2 -DPhe^3 Ser^4 -Arg^5 -D3Pal^6 -Leu^7 -Arg^8 -Pro^9 -DAla^10 -NH2 [V]", "values": [{"measurement": "HRA (μg/ml) ED50 ± SEM", "setting": "mast cells [1]; in vitro histamine release, rat peritoneal mast cells", "value": 7.4, "unit": "µg/mL"}, {"measurement": "% AOA/μg 0.25", "setting": "rat ovulation; 0.25 μg", "value": 29, "unit": "%"}, {"measurement": "% AOA/μg 0.5", "setting": "rat ovulation; 0.5 μg", "value": 60, "unit": "%"}, {"measurement": "% AOA/μg 1.0", "setting": "rat ovulation; 1.0 μg", "value": 100, "unit": "%"}]}, {"molecule": "CC(=O)N[C@H](Cc1ccc2ccccc2c1)C(=O)N[C@H](Cc1ccc(Cl)cc1)C(=O)N[C@H](Cc1cccnc1)C(=O)N[C@@H](CO)C(=O)N[C@@H](Cc1ccc(O)cc1)C(=O)N[C@H](Cc1cccnc1)C(=O)N[C@@H](CC(C)C)C(=O)N[C@@H](CCCNC(=N)N)C(=O)N1CCC[C@H]1C(=O)N[C@H](C)C(N)=O", "note": "[III, NAc-D2Nal^1 -DpClPhe^2 -D3Pal^3 -Ser^4 -Tyr^5 -D3Pal^6 -Leu^7 -Arg^8 -Pro^9 -DAla^10 -NH2] (Ac-[d2Nal][dPhe(4-Cl)][d3Pal]SY[d3Pal]LRP[dA]-NH2)", "values": [{"measurement": "HRA (μg/ml) ED50 ± SEM", "setting": "mast cells [1]", "value": 9.8, "unit": "µg/mL"}]}]}
